# Reference: US20250353863A1, “TRICYCLIC SPIROLACTAM COMPOUNDS WITH ANTIMYCOBACTERIAL ACTIVITY” (priority 2022, published 2025)
# System: Mtb H37Rv-WT
# Assay: MIC by resazurin microtiter assay (REMA) against Mtb
# Type: cell-based
# Settings: Mycobacterium tuberculosis, 144 h, REMA, 37° C., 6 days, read-out: MIC (μM) H37Rv-WT
row,SMILES,MIC [µM]
1,"CC(C)[C@H]1CO[C@]23CCN(Cc4ccc(Cl)c(Cl)c4)C[C@H]2CCC(=O)N13 [(3S,7aR,11aR)-9-[(3,4-dichlorophenyl)methyl]-3-isopropyl-2,3,6,7,7a,8,10,11-octahydrooxazolo[2,3-j][1,6]naphthyridin-5-one]",< 1
2,"CC(C)C[C@@H]1C[C@@H]2CN(Cc3ccc(C(F)(F)F)cc3)CC[C@@]23OC[C@H](C(C)C)N3C1=O [(3S,6R,7aR,11aR)-6-isobutyl-3-isopropyl-9-[[4-(trifluoromethyl)phenyl]methyl]-2,3,6,7,7a,8,10,11-octahydrooxazolo[2,3-j][1,6]naphthyridin-5-one]",> 10
3,"CC(C)[C@H]1CO[C@]23CCN(Cc4ccc(C(F)(F)F)cc4)C(=O)[C@H]2CCC(=O)N13 [(3S,7aS,11aR)-3-isopropyl-9-[[4-(trifluoromethyl)phenyl]methyl]-3,6,7,7a,10,11-hexahydro-2H-oxazolo[2,3-j][1,6]naphthyridine-5,8-dione]",> 10
4,"CC(C)[C@H]1CO[C@]23CCN(C4CCCCC4)C[C@H]2CCC(=O)N13 [(3S,7aR,11aR)-9-cyclohexyl-3-isopropyl-2,3,6,7,7a,8,10,11-octahydrooxazolo[2,3-j][1,6]naphthyridin-5-one]",> 10
5,"CC(C)[C@H]1CO[C@]23CCN(Cc4ccc(-c5ccccc5)cc4)C[C@H]2CCC(=O)N13 [(3S,7aR,11aR)-3-isopropyl-9-[(4-phenylphenyl)methyl]-2,3,6,7,7a,8,10,11-octahydrooxazolo[2,3-j][1,6]naphthyridin-5-one]",< 1
6,"Cc1c(CN2CC[C@]34OC[C@H](C(C)C)N3C(=O)CC[C@@H]4C2)[nH]c2ccccc12 [(3S,7aR,11aR)-3-isopropyl-9-[(3-methyl-1H-indol-2-yl)methyl]-2,3,6,7,7a,8,10,11-octahydrooxazolo[2,3-j][1,6]naphthyridin-5-one]",< 1
7,"CC(C)[C@H]1CO[C@]23CCN(CCCc4ccc(C(F)(F)F)cc4)C[C@H]2CCC(=O)N13 [(3S,7aR,11aR)-3-isopropyl-9-[3-[4-(trifluoromethyl)phenyl]propyl]-2,3,6,7,7a,8,10,11-octahydrooxazolo[2,3-j][1,6]naphthyridin-5-one]",< 1
8,"CC(C)[C@H]1CO[C@]23CCN(Cc4ccc(C(F)(F)F)cc4)C[C@H]2C[C@H](C)C(=O)N13 (single isomer, unassigned)",1 to 10
9,"CC(C)[C@H]1CO[C@]23CCN(C(=O)Cc4ccc(C(F)(F)F)cc4)C[C@H]2CCC(=O)N13 [(3S,7aR,11aR)-3-isopropyl-9-[2-[4-(trifluoromethyl)phenyl]acetyl]-2,3,6,7,7a,8,10,11-octahydrooxazolo[2,3-j][1,6]naphthyridin-5-one]",> 10
10,"CC(C)[C@H]1CO[C@]23CCN(Cc4cccc(Oc5ccccc5)c4)C[C@H]2CCC(=O)N13 [(3S,7aR,11aR)-3-isopropyl-9-[(3-phenoxyphenyl)methyl]-2,3,6,7,7a,8,10,11-octahydrooxazolo[2,3-j][1,6]naphthyridin-5-one]",< 1
11,"CC(C)[C@H]1CO[C@]23CCN(Cc4ccc(C(F)(F)F)cc4)C[C@H]2C[C@@H](F)C(=O)N13 [(3S,7aR,11aR)-6-fluoro-3-isopropyl-9-[[4-(trifluoromethyl)phenyl]methyl]-2,3,6,7,7a,8,10,11-octahydrooxazolo[2,3-j][1,6]naphthyridin-5-one]",< 1
12,"CC(C)[C@H]1CO[C@]23CCN(Cc4ccc(Cl)c(C(F)(F)F)c4)C[C@H]2CCC(=O)N13 [(3S,7aR,11aR)-9-[[4-chloro-3-(trifluoromethyl)phenyl]methyl]-3-isopropyl-2,3,6,7,7a,8,10,11-octahydrooxazolo[2,3-j][1,6]naphthyridin-5-one]",< 1
13,CC(C)[C@H]1CO[C@]23CCN(S(=O)(=O)CCCc4ccc(C(F)(F)F)cc4)C[C@H]2CCC(=O)N13,< 1

# Same assay, conditions: Mycobacterium tuberculosis, REMA, read-out: MIC M. tuberculosis
row,SMILES,MIC [µM]
1,"CC(C)[C@H]1CO[C@]23CCN(CCc4ccc(C(F)(F)F)cc4)C[C@H]2CCC(=O)N13 [Example 38, (3S,7aR,11aR)-3-isopropyl-9-[2-[4-(trifluoromethyl)phenyl]ethyl]-2,3,67,7a,8,10,11-octahydrooxazolo[2,3-j][1,6]naphthyridin-5-one]",< 1
